From patent publication US20260174859A1, “ISOINDOLINONE DERIVATIVE HAVING ARYLCYCLOALKYLAMIDE STRUCTURE, AND USE THEREOF” (ONCORD BIO INC, priority 2022, published 2026) come the findings set out here.

Data set [1] deals with NCI-H1155 (lung cancer cells). The data set can be described thus: CytoX cell viability assay in NCI-H1155 lung cancer cells. As to conditions: Homo sapiens, NCI-H1155, 72 h; for viability at 0.01 µM: read-out: NCI-H1155 (% viability) at 10 nM; for viability at 0.5 µM: read-out: NCI-H1155 (% viability) at 500 nM.
Method: (§1) The viability of NCI-H1155 (lung cancer cells) was measured using the CytoX cell viability assay kit (LPS Solution, #CYT3000). […] CytoX solution was then added to the cells and incubated for 1 hour.
Data set [2] has as its system NCI-H1155 (lung cancer cells).
Method: as §1
Data set [3] has as its system KG-1 cells. The data set can be described thus: Cytotoxicity assay (WST-1) in KG-1 cancer cells. It is filed as cell-based. The note with it: Homo sapiens, 72 hours. The method, then:
To evaluate the effects of the compounds of the present disclosure on cancer cells, a cytotoxicity assay was conducted as follows.
Cancer cells (KG-1) were seeded at a density of 10,000 cells per well in 96-well plates. The compound of the present disclosure and control compounds (Comparative Compounds 1, 2, and 3) were treated at predetermined concentrations. After 72 hours, the cells were treated with WST-1 reagent for 1 hour. Then, absorbance was read at 450 nm using a SpectraMax spectrophotometer to determine cell viability.
In general terms: Tetrazolium assays rely on reduction of a dye to a coloured formazan, in cell work by metabolically active cells.

In general, viability refers to a read-out of living cells in per cent, often relative to untreated cells. In general, IC50 refers to the concentration at which inhibition is half-maximal. Low readings indicate higher potency, high ones lower potency.

The structures appear in SMILES notation. Bounds are passed on as bounds.

As to `O=C1CCC(N2Cc3cc(CNC(=O)[C@@H]4C[C@H]4c4ccc(Cl)cc4)ccc3C2=O)C(=O)N1` (mixture of isomers) [Cpd. 5, (1R,2R)-2-(4-chlorophenyl)-N-((2-(2,6-dioxopiperidin-3-yl)-1-oxoisoindolin-5-yl)methyl)cyclopropane-1-carboxamide racemic mixture], in data set [1], the viability at 0.01 µM stood at 2% and the viability at 0.5 µM was found to be 4%.
For the compound `O=C1CCC(N2Cc3cc(CNC(=O)C(F)(F)c4ccc(Cl)cc4)ccc3C2=O)C(=O)N1` (stereo not drawn) [CC-90009 (Eragidomide), Eragidomide], the “NCI-H1155 (% viability) at 10 nM” value in data set [2] (0.01 µM) is 85.0%. For the same compound, in data set [2] (0.5 µM), the “NCI-H1155 (% viability) at 500 nM” value came to 23.25%.
`O=C1CCC(N2Cc3cc(CNC(=O)c4cc5ccccc5cn4)ccc3C2=O)C(=O)N1` (stereo not drawn) [Comparative Cpd. 1, N-((2-(2,6-dioxopiperidin-3-yl)-1-oxoisoindolin-5-yl)methyl) isoquinoline-3-carboxamide] yielded an IC50 in data set [3] of over 10 µM.
Turning to `O=C1CCC(N2Cc3cc(CNC(=O)c4cnc5ccccc5n4)ccc3C2=O)C(=O)N1` (stereo not drawn) [Comparative Cpd. 2, N-((2-(2,6-dioxopiperidin-3-yl)-1-oxoisoindolin-5-yl)methyl)quinoxaline-2-carboxamide], in data set [3], the 50% inhibitory concentration (IC50) is over 10 µM.
With `O=C1CCC(N2Cc3cc(CNC(=O)c4ccc5cc(Cl)ccc5n4)ccc3C2=O)C(=O)N1` (stereo not drawn) [Comparative Cpd. 3, 6-chloro-N-((2-(2,6-dioxopiperidin-3-yl)-1-oxoisoindolin-5-yl)methyl) quinoline-2-carboxamide], the IC50 in data set [3] came to 4.1 µM.
`O=C1CCC(N2Cc3cc(CNC(=O)[C@@H]4C[C@H]4c4ccccc4)ccc3C2=O)C(=O)N1` (stereo partly drawn) [Cpd. 1, (1R,2R)—N-((2-(2,6-dioxopiperidin-3-yl)-1-oxoisoindolin-5-yl)methyl)-2-phenylcyclopropane-1-carboxamide] registered a 50% inhibitory concentration (IC50) in data set [3] of 0.002 µM.
For the compound `O=C1CCC(N2Cc3cc(CNC(=O)[C@@H]4C[C@H]4c4ccc(Cl)cc4)ccc3C2=O)C(=O)N1` (stereo partly drawn) [Cpd. 3, (1R,2R)-2-(4-chlorophenyl)-N-((2-(2,6-dioxopiperidin-3-yl)-1-oxoisoindolin-5-yl)methyl)cyclopropane-1-carboxamide], in data set [1], the viability at 0.01 µM is 4% and the viability at 0.5 µM worked out at 4%.
As for `O=C1CCC(N2Cc3cc(CNC(=O)[C@@H]4C[C@@H]4c4ccccc4)ccc3C2=O)C(=O)N1` (stereo partly drawn) [Cpd. 4, (1R,2S)—N-((2-(2,6-dioxopiperidin-3-yl)-1-oxoisoindolin-5-yl)methyl)-2-phenylcyclopropane-1-carboxamide], in data set [1], the viability at 0.01 µM is 94% and the viability at 0.5 µM came to 95%.
The matching figures for `O=C1CCC(N2Cc3cc(CNC(=O)[C@@H]4C[C@H]4c4cccc(Cl)c4)ccc3C2=O)C(=O)N1` (stereo partly drawn) [Cpd. 6, (1R,2R)-2-(3-chlorophenyl)-N-((2-(2,6-dioxopiperidin-3-yl)-1-oxoisoindolin-5-yl)methyl)cyclopropane-1-carboxamide]: 5% and 4%.
For the compound `O=C1CCC(N2Cc3cc(CNC(=O)[C@H]4C[C@@H]4c4ccccc4)ccc3C2=O)C(=O)N1` (stereo partly drawn) [Cpd. 7, (1S,2S)—N-((2-(2,6-dioxopiperidin-3-yl)-1-oxoisoindolin-5-yl)methyl)-2-phenylcyclopropane-1-carboxamide], in data set [1], the viability at 0.01 µM turned out to be 3% and the viability at 0.5 µM turned out to be 4%.
For the compound `O=C1CCC(N2Cc3cc(CNC(=O)[C@@H]4C[C@H]4c4ccc(F)cc4)ccc3C2=O)C(=O)N1` (stereo partly drawn) [Cpd. 8, (1R,2R)—N-((2-(2,6-dioxopiperidin-3-yl)-1-oxoisoindolin-5-yl)methyl)-2-(4-fluorophenyl)cyclopropane-1-carboxamide], in data set [1], the viability at 0.01 µM was found to be 48% and the viability at 0.5 µM was determined as 26%.
For `O=C1CCC(N2Cc3cc(CNC(=O)[C@@H]4C[C@H]4c4cccc(F)c4)ccc3C2=O)C(=O)N1` (stereo partly drawn) [Cpd. 9, (1R,2R)—N-((2-(2,6-dioxopiperidin-3-yl)-1-oxoisoindolin-5-yl)methyl)-2-(3-fluorophenyl)cyclopropane-1-carboxamide], in data set [1], the viability at 0.01 µM came out at 52% and the viability at 0.5 µM is 25%.
The matching figures for `O=C1CCC(N2Cc3cc(CNC(=O)[C@H]4C[C@@H]4c4cccc(Cl)c4)ccc3C2=O)C(=O)N1` (stereo partly drawn) [Cpd. 10, (1S,2S)-2-(3-chlorophenyl)-N-((2-(2,6-dioxopiperidin-3-yl)-1-oxoisoindolin-5-yl)methyl)cyclopropane-1-carboxamide]: 39% and 25%.
`O=C1CCC(N2Cc3cc(CNC(=O)C4CC4c4ccc(C(F)(F)F)cc4)ccc3C2=O)C(=O)N1` (stereo not drawn) [Cpd. 11, N-((2-(2,6-dioxopiperidin-3-yl)-1-oxoisoindolin-5-yl)methyl)-2-(4-(trifluoromethyl)phenyl)cyclopropane-1-carboxamide]: in data set [1], the viability at 0.01 µM was found to be 79% and the viability at 0.5 µM stood at 34%.
On to `Cc1ccc([C@H]2C[C@@H]2C(=O)NCc2ccc3c(c2)CN(C2CCC(=O)NC2=O)C3=O)cc1` (stereo partly drawn) [Cpd. 12, (1S,2S)—N-((2-(2,6-dioxopiperidin-3-yl)-1-oxoisoindolin-5-yl)methyl)-2-(p-tolyl)cyclopropane-1-carboxamide], for which, in data set [1], the viability at 0.01 µM is 44% and the viability at 0.5 µM was determined as 27%.
In the case of `O=C1CCC(N2Cc3cc(CNC(=O)C4CC4c4ccc(Cl)cc4Cl)ccc3C2=O)C(=O)N1` (stereo not drawn) [Cpd. 13, 2-(2,4-dichlorophenyl)-N-((2-(2,6-dioxopiperidin-3-yl)-1-oxoisoindolin-5-yl)methyl)cyclopropane-1-carboxamide], in data set [1], the viability at 0.01 µM is 27% and the viability at 0.5 µM was 24%.
Regarding `O=C1CCC(N2Cc3cc(CNC(=O)C4CCC4c4ccccc4)ccc3C2=O)C(=O)N1` (stereo not drawn) [Cpd. 14, N-((2-(2,6-dioxopiperidin-3-yl)-1-oxoisoindolin-5-yl)methyl)-2-phenylcyclobutane-1-carboxamide], in data set [1], the viability at 0.01 µM was found to be 96% and the viability at 0.5 µM is 57%.
